Experimental data reported in patent publication US8492349B2, “Analgesia with minimal tolerance and dependence by a mu opioid receptor agonist that also binds filamin A” (Pain Therapeutics, Inc., priority 2007, dated 2013).
Where two headings read alike, the source gives them in different places.

Key:
FLNA = FLNA (Homo sapiens, UniProt P21333); experiment: FLNA binding affinity screen
[1] = tested on: other Go-coupled receptors; experiment: Stimulation of other Go-coupled receptors; assay type: biochemical; conditions: 0.1 μM screen
MOR = experiment: Stimulation of MOR screen; assay type: biochemical
Description: In that Table, the log P value is the logarithm of a compound's partition coefficient between n-octanol and water [log(coctanol/cwater)], and is a well established measure of the compound's […]. “C Log P” shown in the Table is a calculated Log P value that is obtained using a program copyrighted (1988-2008) by Pomona College and BioByte, Inc. of Claremont, Calif.

MOR-Gs coupling [2] = experiment: Acute morphine-induced MOR Go-to-Gs coupling switch in organotypic striatal slice cultures; assay type: cell-based, rat; conditions: for effect on acute morphine-induced coupling switch by MOR: pre-treatment 10 μM peptide
Method: Tissues were harvested 5, 15 or 60 minutes after the drug exposure by centrifugation. For determination of MOR-G protein coupling, slices were homogenated to generate synaptic membranes and cytosolic fractions. Synaptic membranes (400 μg) were then solubilized with 0.5% digitonin/0.2% sodium cholate/0.5% NP-40 in 250 μl of immunoprecipitation buffer (25 mM HEPES, pH 7.5; 200 mM NaCl, 1 mM EDTA, 50 μg/ml leupeptin, 10 μg/ml aprotinin, 2 μg/ml soybean trypsin inhibitor, 0.04 mM PMSF and mixture of protein phosphatase inhibitors). Following centrifugation, striatal membrane lysates were immunoprecipitated with immobilized anti-Gαs/olf or -Gαo (Santa Cruz) conjugated with immobilized protein A-agarose beads (Pierce-Endogen). The level of MOR in anti-Gαs/olf or -Gαo immunoprecipitates was determined by Western blotting using specific anti-MOR antibodies.

pS133-CREB = experiment: Acute morphine-induced CREB S133 phosphorylation in organotypic striatal slice cultures; assay type: cell-based, rat; conditions: for pS133CREB detection, treatment alone: without morphine; for pS133CREB level in striatal tissue: 100 μM
Method: CREB in the solubilized cytosol and nucleus was immunoprecipitated with an anti-CREB antibody (Santa Cruz) and the level of pS^133-CREB was then determined by Western blotting using a specific antibody directed against pS^133-CREB (Santa Cruz).

MOR-Gs coupling [3] = experiment: Chronic morphine-induced MOR Go-to-Gs coupling switch in organotypic striatal slice cultures; assay type: cell-based, rat; conditions: for effect on NLX-mediated prevention of cellular indices of morphine tolerance (Go-to-Gs switch and cAMP): 10 μM peptide added to morphine plus 10 pM NLX
Method: For determination of MOR-G protein coupling, slices were homogenated to generate synaptic membranes. […] Following centrifugation, striatal membrane lysates were immunoprecipitated with immobilized anti-Gαs/olf or -Gαo conjugated with immobilized protein G-agarose beads. The level of MOR in anti-Gαs/olf or -Gαo immunoprecipitates was determined by Western blotting using specific anti-MOR antibodies.

purified human FLNA = biological target: T1, purified human FLNA (Homo sapiens, UniProt P21333); experiment: [3H]NLX binding to immunopurified FLNA; conditions: for attenuation of [3H]NLX binding to purified human FLNA: 10 μM peptide, 500 pM [3H]NLX
T1 construct: made in house
Method: (§1) To determine the NLX binding site on FLNA, various overlapping peptides encoding the c-terminal section of FLNA were used to compete for [^3H]NLX binding to FLNA using either A7 cell membranes or purified FLNA from A7 or SK-N-MC cells. Peptides were prepared by Sigma-Genosys (The Woodlands, Tex.). The reaction mixture consisted of 100 μg A7 membranes or 2 μg purified FLNA, 500 pM [^3H]NLX, and 10 μM of either FLNA2550-2560, FLNA2556-2565, FLNA2561-2570, FLNA2566-2575 or FLNA2576-2581 in 500 μl binding medium. The reaction was carried out at 37° C. for 30 minutes and terminated by rapid filtration through GF/B membranes under vacuum. The filters were washed twice with 5 ml ice-cold binding medium, and [^3H]NLX retained on the filters was measured by liquid, scintillation spectrometry.

[4] = biological target: T2, FLNA in A7 cell membranes (Homo sapiens, UniProt P21333); experiment: [3H]NLX binding to membranes from FLNA-expressing A7 cells (competition); conditions: for displacement of [3H]NLX binding to A7 membranes: FIG. 3a; for attenuation of [3H]NLX binding to A7 cell membranes: 10 μM peptide, 500 pM [3H]NLX
T2 construct: expressed in transfected cells; host or cells: A7, a subclone of human melanoma M2, stably transfected with human FLNA cDNA; membranes
Method: To confirm FLNA as the high-affinity target of NLX, [^3H]NLX binding to the human melanoma cell line M2 and its subclone A7 was assessed. The M2 subclone lacks FLNA and MOR and its subclone A7 is stably transfected with human FLNA cDNA (obtained from Drs. Stossel and Ohta at Harvard Medical School).
Membranes prepared from A7 cells (50 μg) were incubated in binding medium consisting of 50 mM Tris HCl, pH 7.5; 100 mM NaCl; and protease and protein phosphatase inhibitors with 500 pM [^3H]NLX for 30 minutes at 37° C. Total incubation volume was 500 μl. Non-specific binding was defined by 1 μM NTX. […] Reactions were terminated by, rapid filtration through GF/B membranes under vacuum. The filters were washed twice with 5 ml ice-cold binding medium, and [^3H]NLX retained on the filters was measured by liquid scintillation spectrometry.
as §1
To determine the essential amino acid residue(s) within the NLX-interacting pentapeptide, four additional pentapeptides, each with one amino acid residue replaced by alanine, were used along with the correct FLNA2561-2565 pentapeptide to compete for [^3H]NLX binding to FLNA using 100 μg A7 cell membranes. Peptides were generated by Sigma-Genosys. The reaction mixture consisted of 500 pM [^3H]NLX, 100 μg A7 membranes, and 10 μM pentapeptide [AAKGL, (SEQ ID NO:13); VAKGL (SEQ ID NO:14); VAAGL (SEQ ID NO:12); VAKAL (SEQ ID NO:15) or VAKGA (SEQ ID NO:16)] in 500 μl binding medium. The reaction was conducted at 37° C. for 30 minutes and terminated by rapid filtration through GF/B membranes under reduced pressure. The filters were washed twice with 5 ml ice-cold binding medium, and [^3H]NLX retained on the filters was measured by liquid scintillation spectrometry.

[5] = cited from earlier work
[6] = pre-treatment 10 μM peptide, 100 μM morphine
[7] = co-treatment 100 pM with 100 μM morphine

T1 sequence (P21333 whole entry): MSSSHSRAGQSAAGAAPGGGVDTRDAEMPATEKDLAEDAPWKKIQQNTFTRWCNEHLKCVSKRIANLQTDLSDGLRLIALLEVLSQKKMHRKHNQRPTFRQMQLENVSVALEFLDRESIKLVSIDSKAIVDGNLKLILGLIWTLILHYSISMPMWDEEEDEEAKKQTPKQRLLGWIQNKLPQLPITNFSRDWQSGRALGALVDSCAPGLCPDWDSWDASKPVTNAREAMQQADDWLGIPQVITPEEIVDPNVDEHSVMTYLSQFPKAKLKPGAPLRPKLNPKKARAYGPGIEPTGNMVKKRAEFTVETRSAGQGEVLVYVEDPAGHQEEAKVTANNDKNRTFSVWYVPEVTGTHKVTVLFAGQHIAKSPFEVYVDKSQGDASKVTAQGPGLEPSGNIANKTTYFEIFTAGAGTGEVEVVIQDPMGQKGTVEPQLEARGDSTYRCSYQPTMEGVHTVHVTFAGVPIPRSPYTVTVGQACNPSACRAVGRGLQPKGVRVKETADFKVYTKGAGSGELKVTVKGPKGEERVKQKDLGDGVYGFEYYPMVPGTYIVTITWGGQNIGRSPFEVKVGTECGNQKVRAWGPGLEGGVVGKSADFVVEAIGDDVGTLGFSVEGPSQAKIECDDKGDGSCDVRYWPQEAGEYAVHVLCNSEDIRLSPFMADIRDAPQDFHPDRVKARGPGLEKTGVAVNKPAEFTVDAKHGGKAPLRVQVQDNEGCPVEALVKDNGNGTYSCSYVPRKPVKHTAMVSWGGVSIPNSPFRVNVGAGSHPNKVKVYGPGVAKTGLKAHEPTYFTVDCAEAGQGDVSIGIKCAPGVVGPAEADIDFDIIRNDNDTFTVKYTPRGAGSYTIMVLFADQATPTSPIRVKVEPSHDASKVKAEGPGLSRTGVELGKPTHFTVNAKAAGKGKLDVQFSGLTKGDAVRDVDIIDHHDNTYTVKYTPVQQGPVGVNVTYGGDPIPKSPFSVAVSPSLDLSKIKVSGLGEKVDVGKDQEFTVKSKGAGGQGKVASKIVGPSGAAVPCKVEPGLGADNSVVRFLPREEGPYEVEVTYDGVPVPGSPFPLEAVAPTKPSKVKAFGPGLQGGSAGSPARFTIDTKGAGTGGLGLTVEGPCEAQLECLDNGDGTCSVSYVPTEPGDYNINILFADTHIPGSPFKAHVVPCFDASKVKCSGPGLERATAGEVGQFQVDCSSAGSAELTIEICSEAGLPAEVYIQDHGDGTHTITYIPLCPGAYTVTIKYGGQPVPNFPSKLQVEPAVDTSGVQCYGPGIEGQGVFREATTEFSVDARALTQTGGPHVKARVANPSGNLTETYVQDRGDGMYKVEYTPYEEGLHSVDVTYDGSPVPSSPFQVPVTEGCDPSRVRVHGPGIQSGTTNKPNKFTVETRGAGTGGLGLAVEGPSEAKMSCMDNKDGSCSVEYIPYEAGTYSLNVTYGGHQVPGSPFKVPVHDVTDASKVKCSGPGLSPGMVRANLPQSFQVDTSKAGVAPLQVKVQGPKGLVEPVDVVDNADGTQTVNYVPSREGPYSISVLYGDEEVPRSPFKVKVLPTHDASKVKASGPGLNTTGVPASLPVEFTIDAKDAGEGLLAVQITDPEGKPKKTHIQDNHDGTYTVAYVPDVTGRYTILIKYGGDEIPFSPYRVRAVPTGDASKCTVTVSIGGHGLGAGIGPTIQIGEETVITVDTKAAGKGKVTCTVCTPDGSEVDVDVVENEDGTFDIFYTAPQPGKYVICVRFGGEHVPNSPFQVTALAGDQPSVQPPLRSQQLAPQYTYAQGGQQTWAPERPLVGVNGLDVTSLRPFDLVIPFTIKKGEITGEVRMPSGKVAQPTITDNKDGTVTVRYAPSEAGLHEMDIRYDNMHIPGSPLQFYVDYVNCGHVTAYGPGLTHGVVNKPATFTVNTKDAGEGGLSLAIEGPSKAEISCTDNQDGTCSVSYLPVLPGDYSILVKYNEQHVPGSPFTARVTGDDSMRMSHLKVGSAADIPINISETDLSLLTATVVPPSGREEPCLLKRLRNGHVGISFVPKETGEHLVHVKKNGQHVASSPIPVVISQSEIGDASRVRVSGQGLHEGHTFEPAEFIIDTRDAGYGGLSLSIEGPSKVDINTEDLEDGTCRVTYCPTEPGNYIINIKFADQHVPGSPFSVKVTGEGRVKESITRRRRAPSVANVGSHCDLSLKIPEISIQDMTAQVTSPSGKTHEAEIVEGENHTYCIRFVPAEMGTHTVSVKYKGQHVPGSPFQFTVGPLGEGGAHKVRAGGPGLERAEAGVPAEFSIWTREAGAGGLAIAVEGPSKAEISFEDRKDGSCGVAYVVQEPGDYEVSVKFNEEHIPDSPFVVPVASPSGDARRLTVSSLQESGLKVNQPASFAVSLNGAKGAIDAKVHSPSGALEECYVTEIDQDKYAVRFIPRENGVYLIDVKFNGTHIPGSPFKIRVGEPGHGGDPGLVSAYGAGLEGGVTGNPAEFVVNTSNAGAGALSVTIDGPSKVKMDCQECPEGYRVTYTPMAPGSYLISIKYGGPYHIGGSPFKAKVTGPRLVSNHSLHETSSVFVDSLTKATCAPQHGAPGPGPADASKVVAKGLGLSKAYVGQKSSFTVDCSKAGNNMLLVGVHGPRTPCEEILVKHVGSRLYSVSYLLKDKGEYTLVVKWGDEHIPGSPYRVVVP
T2 sequence (P21333 whole entry): as above
Chain of FLNA (P21333 whole entry): as above
Method for cAMP accumulation: Tissues were homogenized by sonication and protein precipitated with 1M TCA. The supernatant obtained after centrifugation was neutralized using 50 mM Tris, pH 9.0. The level of cAMP in the brain lysate was measured by a cAMP assay kit (PerkinElmer Life Science, Boston) according to manufacturer's instructions.

COc1ccc(S(=O)(=O)N2CCC3(CC2)OCCN3S(=O)(=O)c2ccc(OC)cc2)cc1 [Compound 5]
Kd (FLNA; read-out: FLNA affinity): 8.65 pM
Stimulation of other Go-coupled receptors [1]: 11%
Stimulation of MOR at (at 0.1 μM) (MOR): 91%

COC(OC)C12CCC(=O)C=C1CCC1C3CCC(OC(C)=O)C3(C)CCC12 (stereo not shown) [Compound 1]
Stimulation of other Go-coupled receptors [1]: 19%
Stimulation of MOR at (at 0.1 μM) (MOR): 79%

VAKGL (SEQ ID NO:14) [decoy pentapeptide]
effect on acute morphine-induced coupling switch by MOR (MOR-Gs coupling [2]; 100 μM morphine): completely prevented
effect on acute morphine-induced pS133CREB signal (pS133-CREB; [6]): virtually abolished

FLNA2566-2575: overlapping peptide encoding the c-terminal section of FLNA (GLSKAYVGQK; UniProt P21333 2566-2575, looked up, fragment)
effect on NLX-mediated prevention of cellular indices of morphine tolerance (Go-to-Gs switch and cAMP) (MOR-Gs coupling [3]): not

C=CCN1CC[C@]23c4c5ccc(O)c4O[C@H]2C(=O)CC[C@@]3(O)[C@H]1C5 [Naloxone, naloxone]
effect on chronic morphine-induced attenuation of the DAMGO-induced reduction in cAMP production (cAMP accumulation; 10 pM with 100 μM morphine): blocked
effect on acute morphine-induced pS133CREB signal (pS133-CREB; [7]): virtually abolished
pS133CREB detection, treatment alone (pS133-CREB): did not result in pS^133CREB detection
Kd (purified human FLNA; read-out: binding affinity for immunopurified FLNA): ~43 pM

CN1CC[C@]23c4c5ccc(O)c4O[C@H]2[C@@H](O)C=C[C@H]3[C@H]1C5 [morphine]
effect on DAMGO-mediated reduction in cAMP accumulation (cAMP accumulation; chronic 100 μM treatment): attenuated
displacement of [3H]NLX binding to A7 membranes [4]: not
Go-to-Gs coupling switch by MOR after chronic treatment (MOR-Gs coupling [3]; 100 μM, 1 hour twice daily for 7 days): induced a robust Go-to-Gs coupling switch
pS133CREB level in striatal tissue (pS133-CREB; after 5 and 15 minutes of exposure): robust level
pS133CREB level in striatal tissue (pS133-CREB; after 1 hour of exposure): only a residual level

C[C@@H](NC(=O)[C@@H](N)Cc1ccc(O)cc1)C(=O)NCC(=O)N(C)[C@@H](Cc1ccccc1)C(=O)NCCO [DAMGO]
Stimulation of other Go-coupled receptors [1]: 6%
Stimulation of MOR at (at 0.1 μM) (MOR): 92%

COc1ccc(C(=O)CC2c3c(cc4c(c3OC)OCO4)CC[N+]2(C)C)c(OC)c1 (stereo not shown) [Compound 7]
Kd (FLNA; read-out: FLNA affinity): 2.86 pM
Stimulation of other Go-coupled receptors [1]: 21%
Stimulation of MOR at (at 0.1 μM) (MOR): 64%

COc1ccccc1CC(=O)CC1c2c(cc3c(c2OC)OCO3)CC[N+]1(C)C (stereo not shown) [Compound 6]
Stimulation of other Go-coupled receptors [1]: 23%
Stimulation of MOR at (at 0.1 μM) (MOR): 91%

FLNA2561-2570: overlapping peptide encoding the c-terminal section of FLNA (VAKGLGLSKA; UniProt P21333 2561-2570, looked up, fragment)
attenuation of [3H]NLX binding to A7 cell membranes [4]: markedly attenuated
effect on NLX-mediated prevention of cellular indices of morphine tolerance (Go-to-Gs switch and cAMP) (MOR-Gs coupling [3]): abolished
attenuation of [3H]NLX binding to purified human FLNA (purified human FLNA): markedly attenuated

FLNA2556-2565: overlapping peptide encoding the c-terminal section of FLNA (DASKVVAKGL; UniProt P21333 2556-2565, looked up, fragment)
attenuation of [3H]NLX binding to A7 cell membranes [4]: markedly attenuated
attenuation of [3H]NLX binding to purified human FLNA (purified human FLNA): markedly attenuated

COc1cc(CCC(O)CC2c3c(cc4c(c3OC)OCO4)CCN2C)ccc1O (stereo not shown) [Compound 3]
Stimulation of other Go-coupled receptors [1]: 16%
Stimulation of MOR at (at 0.1 μM) (MOR): 78%

C[C@@H]1CCC2[C@]3(C)COC(C)(C)OC3CC[C@@]2(C)C12CCC(CO)(CCO)O2 (stereo partly shown) [Compound 2]
Stimulation of other Go-coupled receptors [1]: 11%
Stimulation of MOR at (at 0.1 μM) (MOR): 67%

FLNA2550-2560: overlapping peptide encoding the c-terminal section of FLNA (PGPGPADASKV; UniProt P21333 2550-2560, looked up, fragment)
effect on NLX-mediated prevention of cellular indices of morphine tolerance (Go-to-Gs switch and cAMP) (MOR-Gs coupling [3]): not

VAAGL (SEQ ID NO:12) [control peptide, FLNA2561-2565 withone mid-point alanine substitution]
Go coupling at 15 minutes (MOR-Gs coupling [2]; 10 μM peptide, 100 μM morphine, 15 minutes): mildly preserved
effect on acute morphine-induced coupling switch by MOR (MOR-Gs coupling [2]; 100 μM morphine): did not prevent
effect on acute morphine-induced pS133CREB signal (pS133-CREB; [6]): did not significantly diminish

O=C1CC[C@@]2(O)[C@H]3Cc4ccc(O)c5c4[C@@]2(CCN3CC2CC2)[C@H]1O5 [Naltrexone, naltrexone]
Kd (FLNA): 3.9 pM
displacement of [3H]NLX binding to A7 membranes [4]: robustly displaced
IC50 ([4]; competition curve, 16 concentrations 0.2 pM to 1 μM, FIG. 4, read-out: IC50 for inhibition of [3H]NLX binding to membranes from FLNA-expressing A7 cells): 43 pM
effect on acute morphine-induced G protein coupling switch by MOR (MOR-Gs coupling [2]; [7]): prevented
effect on MOR coupling alone (MOR-Gs coupling [2]; without morphine): had no effect
effect on acute morphine-induced pS133CREB signal (pS133-CREB; [7]): virtually abolished
pS133CREB detection, treatment alone (pS133-CREB): did not result in pS^133CREB detection
effect on acute rewarding effects of oxycodone ([5]; 3 ng/kg): without effect
effect on acute rewarding effects of oxycodone ([5]; 0.03, 0.3 and 30 ng/kg): blocked
